Counter-ions that a name gives are not always drawn. Like-named read-outs stand apart in the source and are kept apart here.
What was measured:
Puccinia recondita = assay: Example F: in vivo test on Puccinia recondita (wheat brown rust); settings: 240 h, wheat plants sprayed 24 hours before inoculation, scored after 10 days, read-out: % Wirkungsgrad
Method: In Vivo Test on Puccinia Recondita (Wheat Brown Rust) An aqueous suspension of the active substance was prepared by homogenization of a mixture of acetone/Tween/dimethyl sulphoxide and subsequent dilution with water to the desired concentration. Wheat plants (variety: Scipion) are sown in cultivation dishes on a peat-pozzolanic earth substrate (50/50) at 12° C. and sprayed at the first-leaf stage (10 cm size) with the aqueous suspension described above. As a control, plants are sprayed with an aqueous solution with no active substance. After 24 hours the plants are inoculated by spraying with an aqueous suspension of Puccinia recondita spores (100,000 spores per ml). The spores are derived from a 10 day-old infected wheat crop and are suspended in water with 2.5 ml/l Tween. […] After 10 days they are scored in comparison with the control plants.

Sphaerotheca fuliginea [1] = assay: Example D: in vivo test on Sphaerotheca fuliginea (powdery mildew on cucumber); settings: Podosphaera fuliginea, 288 h, cucumber plants sprayed 24 hours before inoculation, scored after 12 days, read-out: % Wirkungsgrad
How it was run: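 Scoring took place 12 days after spore inoculation (100,000 spores/ml, at ca. 20/25° C., 60/70% RH) and was made against plants sprayed without active substance. Inoculation followed by 24 hours a spray of water-diluted acetone/Tween/DMSO compound suspension onto Z10 cotyledon-stage cucumbers.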

Alternaria solani = assay: Example M: in vivo test on Alternaria solani (leaf blotch disease/tomato/protective); settings: 168 h, tomato, protective, 500 ppm active substance, assessed 7 days after inoculation, read-out: % Wirkungsgrad (activity level)
How it was run: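 Alternaria solani infection on tomato scored 7 days post-inoculation. Before inoculation, young plants received a protective spray at the stated application dose; formulation was compound mixed with N,N-dimethylformamide and emulsifier, water-diluted.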

Peronospora parasitica = assay: Example A: in vivo test on Peronospora parasitica (downy mildew on white cabbage); settings: Hyaloperonospora parasitica, 120 h, cabbage plants sprayed 24 hours before inoculation, scored after 5 days, read-out: % Wirkungsgrad
How it was run: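 Protective spray test: inoculation with 50,000 spores/ml P. parasitica suspension followed 24 h after compound application to cotyledon-stage cabbage (variety Eminence). Plants kept moist at about 20 °C for 5 days and then rated versus controls sprayed without active substance.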

Pyricularia grisea = type: in vivo; settings: 500 ppm; rice plants sprayed 24 hours before inoculation; scored after 6 days
Sphaerotheca fuliginea [2] = assay: Example L: in vivo test on Sphaerotheca fuliginea (powdery mildew on cucumber/protective); settings: Podosphaera fuliginea, 168 h, cucumber, protective, assessment 7 days after inoculation, read-out: % Wirkungsgrad
How it was run: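 Young cucumber plants sprayed at stated dosage with compound in DMF/alkylaryl polyglycol ether emulsifier diluted in water; inoculated with S. fuliginea spores one day later. Kept in greenhouse at 70% relative humidity, 23° C; protective activity assessed 7 days after inoculation.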

Pyricularia oryzae = assay: whole plant or invertebrate; type: in vivo; settings: 120 h, read-out: % Activity level
Septoria tritici = assay: Example R: in vivo test on Septoria tritici (leaf blotch in wheat/protective); settings: Zymoseptoria tritici, 504 h, wheat, protective, 1000 ppm active substance, assessed 21 days after inoculation, read-out: % Wirkungsgrad (activity level)
How it was run: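 Protective test: young wheat plants sprayed with compound in N,N-dimethylacetamide/alkylaryl polyglycol ether emulsifier diluted in water, dried, then inoculated with Septoria tritici spore suspension. Disease assessed 21 days after inoculation.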

[3] = test system: Fusarium nivale (var. majus); assay: whole plant or invertebrate; type: in vivo; settings: Microdochium nivale, in Triticum aestivum, 120 h, read-out: % Wirkungsgrad (activity level)
Rhynchosporium secalis = assay: Example S: in vivo test on Rhynchosporium secalis (leaf scald in barley/protective); settings: 336 h, barley, protective, 1000 ppm active substance, assessed 14 days after inoculation, read-out: % Wirkungsgrad (activity level)
Method: Solvent: 49 parts by weight N,N-dimethylacetamide Emulsifier: 1 part by weight alkylaryl polyglycol ethers For the preparation of a suitable active substance preparation, 1 part by weight of active substance is mixed with the stated quantities of solvent and emulsifier and the concentrate is diluted to the desired concentration with water. For the testing for protective activity, young plants are sprayed with the active substance preparation at the stated application dosage. After drying of the spray coating, the plants are sprayed with spores with a spore suspension of Rhynchosporium secalis. […] 14 days after the inoculation, the assessment takes place.

Plasmopara viticola = assay: Example N: in vivo test on Plasmopara viticola (downy mildew, vine/protective); settings: 144 h, vine, protective, assessment 6 days after inoculation, read-out: % Wirkungsgrad
How it was run: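 Assessment of downy mildew on vines took place 6 days post-inoculation, after 1 day of moist incubation. Before infection, the young plants received a protective spray of compound emulsified with alkylaryl polyglycol ethers and diluted with water to the stated application rate.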

Rhizoctonia solani = assay: Example W: in vivo test on Rhizoctonia solani (sheath blight in rice/protective); settings: 96 h, rice, protective, 250 ppm active substance, assessed 4 days after inoculation, read-out: % Activity level
How it was run: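 Young rice plants sprayed protectively with compound in acetone/alkylaryl polyglycol ether emulsion diluted in water at stated dosage. Inoculated with R. solani hyphae one day later; disease assessed 4 days post-inoculation.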

Venturia inaequalis = assay: Example O: in vivo test on Venturia inaequalis (apple scab/protective); settings: 240 h, protective, assessment 10 days after inoculation, read-out: % Wirkungsgrad
How it was run: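 Young plants received a preventive spray of compound formulated as an emulsifier-containing aqueous dilution at the given application rate, then were inoculated with apple scab fungus. Disease was scored 10 days post-inoculation.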

Gibberella zeae = type: in vivo; settings: 250 ppm; rice, protective; assessment 5 days after inoculation
Fusarium graminearum [4] = assay: microbe, parasite or virus in culture; type: cell-based
Fusarium graminearum [5] = assay: whole plant or invertebrate; type: in vivo; settings: in Hordeum vulgare, 120 h, read-out: % Wirkungsgrad (activity level)
Botrytis cinerea = assay: Example P: in vivo test on Botrytis cinerea (gray mould on bean/protective); settings: 48 h, bean, protective, 250 ppm active substance, assessed 2 days after inoculation, read-out: % Wirkungsgrad (activity level)
How it was run: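 Infection blotch size on leaves was scored 2 days after placing 2 Botrytis-colonised agar pieces per leaf. Inoculation followed drying of a protective spray applied to young plants at the stated dosage. Spray was prepared by diluting compound with solvent and alkylaryl polyglycol ether emulsifier in water.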

Pythium ultimum = assay: Example U: in vivo test on Pythium ultimum (root rot/damping off in cotton/seed treatment); settings: 50 g/dt; cotton seed treatment; emergence counted after 7 days
Method: The test was performed under greenhouse conditions. Cotton seeds, treated with an active compound according to the invention or a combination of active compounds according to the invention were sown in 6*6 cm size vessels, in a mixture of steamed field earth and sand (1:1). The test compound/s were dissolved in N-methyl-2-pyrrolidone and diluted to the desired concentration with water. The plants were grown at 10° C. Perlite was inoculated with mycelium from Pythium ultimum. 1 mL of the infected perlite was distributed between the treated cotton seeds. […] The assessment was made by counting the emergence.

Cochliobolus miyabeanus = assay: Example X: in vivo test on Cochliobolus miyabeanus (brown spot disease, rice/protective); settings: Bipolaris oryzae, 96 h, read-out: % Activity level
Fusarium proliferatum = assay: Example I: production of fumonisin FB1 by Fusarium proliferatum (microtitre plates); type: cell-based; settings: 120 h
Leptosphaeria nodorum = assay: Example Q: in vivo test on Leptosphaeria nodorum (glume blotch in wheat/protective); settings: Parastagonospora nodorum, 192 h, wheat, protective, assessment 8 days after inoculation, read-out: % Wirkungsgrad
How it was run: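 Protective test: young wheat plants sprayed with compound formulated in N,N-dimethylacetamide plus alkylaryl polyglycol ether emulsifier, diluted in water to the stated dose. After drying, plants inoculated with L. nodorum spore suspension; disease assessed 8 days post-inoculation.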

[6] = determination of the log P values by HPLC on a reverse phase column (C18), EEC-Directive 79/831 Annex V.A8
[7] = LogPA (logP of the stated pure compound or, in a mixture, of the main isomer, 1-substituted 3-aryl-1H-pyrazole)
[8] = 72 h, read-out: % Inhibition des Pilzwachstums bei 50 μM
[9] = 168 h, read-out: % Inhibition der DON/AcDON produktion bei 50 μM

`CCC(C)n1cc(-c2ccncc2)c(-c2ccc(F)cc2)n1` (stereo not shown) [Compound 91] gave a chromatographic logP (physchem; [7]) of 1.5, a pest or weed control at 500 ppm (Puccinia recondita) of 94% and a pest or weed control at 500 ppm (Sphaerotheca fuliginea [1]) of 88%. The pest or weed control at 500 ppm (Alternaria solani) was 95%, the pest or weed control at 500 ppm (Peronospora parasitica) was 89% and the “% Activity level” value (Pyricularia grisea) was 75%. The pest or weed control at 500 ppm (Sphaerotheca fuliginea [2]) was 100%.

With `CC(C)Cn1cc(-c2ccnc3c2C(C)(C)C(=O)N3C)c(-c2ccc(F)cc2)n1` [Compound 148] the chromatographic logP (physchem; [7]) was 3.68 and the “% Activity level” value (Pyricularia grisea) was 71%.

For `CCC(=O)Nc1cc(-c2cn(CC)nc2-c2ccc(F)cc2)ccn1` [Compound 198], the pest or weed control at 250 ppm (Pyricularia oryzae) was 85%, the pest or weed control at 1000 ppm (Septoria tritici) was 100% and the chromatographic logP (physchem; LogPA) was 1.82. For the same compound, the pest or weed control at 1000 ppm [3] was 100%, the pest or weed control at 1000 ppm (Rhynchosporium secalis) was 90% and the pest or weed control at 100 ppm (Plasmopara viticola) was 92%. For the same compound, the pest or weed control at 250 ppm (Rhizoctonia solani) was 88%, the pest or weed control at 100 ppm (Venturia inaequalis) was 96% and the “% Activity level” value (Gibberella zeae) was 80%. For the same compound, the inhibition at 50 µM (Fusarium graminearum [4]; [8]) was 100%, the inhibition at 50 µM (Fusarium graminearum [4]; [9]) was 100% and the pest or weed control at 1000 ppm (Fusarium graminearum [5]) was 100%. For the same compound, the pest or weed control at 500 ppm (Alternaria solani) was 93%, the pest or weed control at 250 ppm (Botrytis cinerea) was 99% and the pest or weed control at 500 ppm (Sphaerotheca fuliginea [2]) was 99%. The “% Activity level” value (Pythium ultimum) was 88%, the pest or weed control at 250 ppm (Cochliobolus miyabeanus) was 90% and the inhibition at 50 µM (Fusarium proliferatum; Fusarium proliferatum growth, OD 620, 5 days, read-out: % Inhibition des Pilzwachstums bei 50 μM) was 99%. The inhibition at 50 µM (Fusarium proliferatum; Fusarium proliferatum, 5 days at 20° C., HPLC-MS/MS, read-out: % Inhibition der FB1 produktion bei 50 μM) was 100% and the pest or weed control at 1000 ppm (Leptosphaeria nodorum) was 100%.

`CCOC(=O)Nc1cc(-c2cn(CC(F)F)nc2-c2ccc(F)cc2)ccn1` [Compound 241] gave a chromatographic logP [6] of 2.45 and a pest or weed control at 500 ppm (Alternaria solani) of 94%.

In the case of `CCOC(=O)Nc1cc(-c2cn(CC3CC3(Cl)Cl)nc2-c2ccc(F)cc2)ccn1` (stereo not shown) [Compound 264], the chromatographic logP [6] is reported as 3.37, the inhibition at 50 µM (Fusarium graminearum [4]; [8]) is reported as 17% and the inhibition at 50 µM (Fusarium graminearum [4]; [9]) is reported as 99%.

With `Fc1ccc(-c2n[nH]cc2-c2ccncc2)cc1` [[IX-1], 4-[3-(4-Fluorophenyl)-1H-pyrazol-4-yl]pyridine hydrochloride] the chromatographic logP ([6]; pH 2.7) was 0.65.

Compound `CCC[CH2][Sn]([CH2]CCC)([CH2]CCC)[c]1c(-c2ccncc2)cnn1C1CCCCO1` (stereo not shown) [[XI-1], 4-[1-(Tetrahydro-2H-pyran-2-yl)-5-(tributylstannyl)-1H-pyrazol-4-yl]pyridine] has a chromatographic logP ([6]; pH 2.7) of 5.09.

`c1cc(-c2cnn(C3CCCCO3)c2)ccn1` (stereo not shown) [[XII-1], 4-[1-(Tetrahydro-2H-pyran-2-yl)-1H-pyrazol-4-yl]pyridine] gave a chromatographic logP ([6]; pH 2.7) of 0.38.
